Experimental data published in US12528814B2, “Bifunctional degraders of interleukin-1 receptor-associated kinases and therapeutic use thereof” (NURIX THERAPEUTICS, INC., priority 2020, dated 2026).

What was measured:
IRAK4 [1] = biological target: T1, IRAK4 (Homo sapiens (Human), UniProt Q9NWZ3); experiment: IRAK4 Degradation HiBiT Assay; conditions: multiple runs, HiBiT-tagged Jurkat cells, 4 hrs; for Dmax: Jurkat, read-out: Cellular IRAK4 HiBiT: Dmax, Table 5; for DC50: read-out: Cellular IRAK4 HiBiT: DC50, Table 5
Target sequence in this assay (Q9NWZ3 whole entry): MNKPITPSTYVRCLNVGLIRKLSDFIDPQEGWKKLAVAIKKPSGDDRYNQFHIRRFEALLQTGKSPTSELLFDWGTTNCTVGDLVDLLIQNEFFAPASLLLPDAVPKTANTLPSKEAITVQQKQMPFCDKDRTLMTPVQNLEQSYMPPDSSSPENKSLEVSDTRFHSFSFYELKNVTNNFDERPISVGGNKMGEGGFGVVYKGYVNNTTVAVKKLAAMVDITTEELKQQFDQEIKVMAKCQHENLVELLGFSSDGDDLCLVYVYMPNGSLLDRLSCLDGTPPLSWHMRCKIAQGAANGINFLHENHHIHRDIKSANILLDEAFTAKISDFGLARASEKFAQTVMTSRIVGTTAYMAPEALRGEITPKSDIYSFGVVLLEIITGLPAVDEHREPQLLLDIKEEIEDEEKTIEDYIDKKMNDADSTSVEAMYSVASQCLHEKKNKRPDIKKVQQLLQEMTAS

IRAK4 [2] = biological target: T1, IRAK4; experiment: IRAK4 Biochemical HTRF Kinase Assay; conditions: Table 5; multiple runs; read-out: IRAK4 HTRF biochemical: IC50
Summary of the method: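 IC50 values derive from non-linear regression of sixteen concentrations in duplicate. Kinase reaction ran 90 min at ambient temperature after adding 5 μM STK-S1 substrate, 10 mM ATP and 10 mM MgCl2 (reaction-solution levels, pre-dilution to 10 μl); phospho-peptide detected by HTRF after 60 min.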
Target sequence in this assay (Q9NWZ3 whole entry, species assumed): as the sequence (Q9NWZ3 whole entry) above

Compound	Dmax (IRAK4 [1])	DC50 (IRAK4 [1])	IC50 (IRAK4 [2])
CNc1cc(-c2ccc3cc(C#N)cnn23)ncc1-c1nnc(N2CC3CCC(C2)N3C2CCN(C(=O)C[C@H](NC(=O)[C@@H]3C[C@@H](O)CN3C(=O)[C@@H](NC(=O)C3(F)CC3)C(C)(C)C)c3ccc(-c4scnc4C)cc3)CC2)s1 [Example 166, (2S,4R)—N-((1S)-3-(4-(3-(5-(6-(3-cyanopyrrolo[1,2-b]pyridazin-7-yl)-4-(methylamino)pyridin-3-yl)-1,3,4-thiadiazol-2-yl)-3,8-diazabicyclo[3.2.1]octan-8-yl)piperidin-1-yl)-1-(4-(4-methylthiazol-5-yl)phenyl)-3-oxopropyl)-1-((S)-2-(1-fluorocyclopropane-1-carboxamido)-3,3-dimethylbutanoyl)-4-hydroxypyrrolidine-2-carboxamide]	114%	67.7 nM	1 nM
CNc1cc(-c2ccc3cc(C#N)cnn23)ncc1-c1nnc([C@H]2CC[C@H](N(C)CC3CCN(c4ccc(C(=O)NC5CCC(=O)NC5=O)nc4)CC3)CC2)s1 (stereo partly drawn) [Example 167, 5-(4-((((1r,4r)-4-(5-(6-(3-cyanopyrrolo[1,2-b]pyridazin-7-yl)-4-(methylamino)pyridin-3-yl)-1,3,4-thiadiazol-2-yl)cyclohexyl)(methyl)amino)methyl)piperidin-1-yl)-N-(2,6-dioxopiperidin-3-yl)picolinamide]	107%	20.1 nM	0.5 nM
CNc1cc(-c2ccc3cc(C#N)cnn23)ncc1-c1nnc([C@H]2CC[C@H](N(C)C(=O)Cc3ccc4c(c3)CN(C3CCC(=O)NC3=O)C4=O)CC2)s1 (stereo partly drawn) [Example 168, N-((1r,4r)-4-(5-(6-(3-cyanopyrrolo[1,2-b]pyridazin-7-yl)-4-(methylamino)pyridin-3-yl)-1,3,4-thiadiazol-2-yl)cyclohexyl)-2-(2-(2,6-dioxopiperidin-3-yl)-1-oxoisoindolin-5-yl)-N-methylacetamide]	20%	2.63 nM	0.6 nM
CNc1cc(-c2ccc3cc(C#N)cnn23)ncc1-c1nnc([C@H]2CC[C@H](N(C)C(=O)C3CCN(c4ccc5c(c4)C(=O)N(C4CCC(=O)NC4=O)C5=O)CC3)CC2)s1 (stereo partly drawn) [Example 169, N-((1r,4r)-4-(5-(6-(3-cyanopyrrolo[1,2-b]pyridazin-7-yl)-4-(methylamino)pyridin-3-yl)-1,3,4-thiadiazol-2-yl)cyclohexyl)-1-(2-(2,6-dioxopiperidin-3-yl)-1,3-dioxoisoindolin-5-yl)-N-methylpiperidine-4-carboxamide]	104%	32 nM	0.8 nM
CNc1cc(-c2ccc3cc(C#N)cnn23)ncc1-c1nnc([C@H]2CC[C@H](N(C)CC3CCN(c4ccc5c(=O)n(C6CCC(=O)NC6=O)ccc5c4)CC3)CC2)s1 (stereo partly drawn) [Example 170, 7-(5-(5-((1r,4r)-4-(((1-(2-(2,6-dioxopiperidin-3-yl)-1-oxo-1,2-dihydroisoquinolin-6-yl)piperidin-4-yl)methyl)(methyl)amino)cyclohexyl)-1,3,4-thiadiazol-2-yl)-4-(methylamino)pyridin-2-yl)pyrrolo[1,2-b]pyridazine-3-carbonitrile]	103%	29.3 nM	0.5 nM
CNc1cc(-c2ccc3cc(C#N)cnn23)ncc1-c1nnc([C@H]2CC[C@H](N(C)C[C@@H]3CCN(c4ccc5c(c4)C(=O)N(C4CCC(=O)NC4=O)C5=O)C3)CC2)s1 (stereo partly drawn) [Example 171, 7-(5-(5-((1S,4r)-4-((((3S)-1-(2-(2,6-dioxopiperidin-3-yl)-1,3-dioxoisoindolin-5-yl)pyrrolidin-3-yl)methyl)(methyl)amino)cyclohexyl)-1,3,4-thiadiazol-2-yl)-4-(methylamino)pyridin-2-yl)pyrrolo[1,2-b]pyridazine-3-carbonitrile]	77%	12.9 nM	0.4 nM
CNc1cc(-c2ccc3cc(C#N)cnn23)ncc1-c1nnc(N2CC3CCC(C2)N3C(=O)C[C@H](NC(=O)[C@@H]2C[C@@H](O)CN2C(=O)[C@@H](NC(=O)C2(F)CC2)C(C)(C)C)c2ccc(-c3scnc3C)cc2)s1 [Example 180, (2S,4R)—N-((1S)-3-(3-(5-(6-(3-cyanopyrrolo[1,2-b]pyridazin-7-yl)-4-(methylamino)pyridin-3-yl)-1,3,4-thiadiazol-2-yl)-3,8-diazabicyclo[3.2.1]octan-8-yl)-1-(4-(4-methylthiazol-5-yl)phenyl)-3-oxopropyl)-1-((S)-2-(1-fluorocyclopropane-1-carboxamido)-3,3-dimethylbutanoyl)-4-hydroxypyrrolidine-2-carboxamide]	110%	91.6 nM	0.5 nM

Now from value to molecule:

Dmax (IRAK4 [1])	DC50 (IRAK4 [1])	IC50 (IRAK4 [2])	Compound
28%	2520 nM	1.5 nM	CNc1cc(-c2ccc3cc(C#N)cnn23)ncc1-c1nnc([C@H]2CC[C@H](NC(=O)CCC(=O)N[C@H](C(=O)N3C[C@H](O)C[C@H]3C(=O)N[C@@H](C)c3ccc(Br)cc3)C(C)(C)C)CC2)s1 [Example 172, N1—((S)-1-((2S,4R)-2-(((S)-1-(4-bromophenyl)ethyl)carbamoyl)-4-hydroxypyrrolidin-1-yl)-3,3-dimethyl-1-oxobutan-2-yl)-N4-((1r,4S)-4-(5-(6-(3-cyanopyrrolo[1,2-b]pyridazin-7-yl)-4-(methylamino)pyridin-3-yl)-1,3,4-thiadiazol-2-yl)cyclohexyl)succinamide]
16%	612 nM	0.4 nM	CNc1cc(-c2ccc3cc(C#N)cnn23)ncc1-c1nnc([C@H]2CC[C@H](NC(=O)CCC(=O)N[C@H](C(=O)N3C[C@H](O)C[C@H]3C(=O)N[C@@H](C)c3ccccc3)C(C)(C)C)CC2)s1 [Example 173, N1-((1r,4S)-4-(5-(6-(3-cyanopyrrolo[1,2-b]pyridazin-7-yl)-4-(methylamino)pyridin-3-yl)-1,3,4-thiadiazol-2-yl)cyclohexyl)-N4—((S)-1-((2S,4R)-4-hydroxy-2-(((S)-1-phenylethyl)carbamoyl)pyrrolidin-1-yl)-3,3-dimethyl-1-oxobutan-2-yl)succinamide]
34%	1340 nM	0.6 nM	CNc1cc(-c2ccc3cc(C#N)cnn23)ncc1-c1nnc([C@H]2CC[C@H](N(C)C(=O)CCC(=O)N[C@H](C(=O)N3C[C@H](O)C[C@H]3C(=O)N[C@@H](C)c3ccccc3)C(C)(C)C)CC2)s1 [Example 174, N1-((1r,4S)-4-(5-(6-(3-cyanopyrrolo[1,2-b]pyridazin-7-yl)-4-(methylamino)pyridin-3-yl)-1,3,4-thiadiazol-2-yl)cyclohexyl)-N4—((S)-1-((2S,4R)-4-hydroxy-2-(((S)-1-phenylethyl)carbamoyl)pyrrolidin-1-yl)-3,3-dimethyl-1-oxobutan-2-yl)-N1-methylsuccinamide]
91%	19.1 nM	0.5 nM	CNc1cc(-c2ccc3cc(C#N)cnn23)ncc1-c1nnc(N2CCN(C(=O)C3CC4(CCN(c5ccc6c(c5)C(=O)N(C5CCC(=O)NC5=O)C6=O)C4)C3)CC2)s1 (stereo not drawn) [Example 175, 7-(5-(5-(4-(6-(2-(2,6-dioxopiperidin-3-yl)-1,3-dioxoisoindolin-5-yl)-6-azaspiro[3.4]octane-2-carbonyl)piperazin-1-yl)-1,3,4-thiadiazol-2-yl)-4-(methylamino)pyridin-2-yl)pyrrolo[1,2-b]pyridazine-3-carbonitrile]
105%	31.5 nM	0.5 nM	CNc1cc(-c2ccc3cc(C#N)cnn23)ncc1-c1nnc(N2CC3(CCN(C(=O)C4CCN(c5ccc6c(c5)C(=O)N(C5CCC(=O)NC5=O)C6=O)CC4)CC3)C2)s1 (stereo not drawn) [Example 176, 7-(5-(5-(7-(1-(2-(2,6-dioxopiperidin-3-yl)-1,3-dioxoisoindolin-5-yl)piperidine-4-carbonyl)-2,7-diazaspiro[3.5]nonan-2-yl)-1,3,4-thiadiazol-2-yl)-4-(methylamino)pyridin-2-yl)pyrrolo[1,2-b]pyridazine-3-carbonitrile]
105%	14.8 nM	0.5 nM	CNc1cc(-c2ccc3cc(C#N)cnn23)ncc1-c1nnc(N2CC3(CCN(C(=O)CN4CCN(c5ccc6c(c5)C(=O)N(C5CCC(=O)NC5=O)C6=O)CC4)CC3)C2)s1 (stereo not drawn) [Example 177, 7-(5-(5-(7-(2-(4-(2-(2,6-dioxopiperidin-3-yl)-1,3-dioxoisoindolin-5-yl)piperazin-1-yl)acetyl)-2,7-diazaspiro[3.5]nonan-2-yl)-1,3,4-thiadiazol-2-yl)-4-(methylamino)pyridin-2-yl)pyrrolo[1,2-b]pyridazine-3-carbonitrile]
113%	42.8 nM	0.7 nM	CNc1cc(-c2ccc3cc(C#N)cnn23)ncc1-c1nnc(N2CC3(CCN(C(=O)C[C@H](NC(=O)[C@@H]4C[C@@H](O)CN4C(=O)[C@@H](NC(=O)C4(F)CC4)C(C)(C)C)c4ccc(-c5scnc5C)cc4)CC3)C2)s1 [Example 178]
85%	57 nM	0.7 nM	CNc1cc(-c2ccc3cc(C#N)cnn23)ncc1-c1nnc(N2CC3(CCN(C(=O)COc4cc(-c5scnc5C)ccc4CNC(=O)[C@@H]4C[C@@H](O)CN4C(=O)[C@@H](NC(=O)C4(F)CC4)C(C)(C)C)CC3)C2)s1 [Example 179, (2S,4R)—N-(2-(2-(2-(5-(6-(3-cyanopyrrolo[1,2-b]pyridazin-7-yl)-4-(methylamino)pyridin-3-yl)-1,3,4-thiadiazol-2-yl)-2,7-diazaspiro[3.5]nonan-7-yl)-2-oxoethoxy)-4-(4-methylthiazol-5-yl)benzyl)-1-((S)-2-(1-fluorocyclopropane-1-carboxamido)-3,3-dimethylbutanoyl)-4-hydroxypyrrolidine-2-carboxamide]
